# Assay results reported in patent US10064858B2, “Methods and compositions for treating bacterial infections with iron chelators” (THE UNITED STATES OF AMERICA, AS REPRESENTED BY THE …, priority 2011, dated 2018).
# Where two headings read alike, the source gives them in different places.
# What was measured:
# Assay type in all cases: cell-based
# [1] = test system: multi-drug resistant bacterial species; assay: Time kill method, synergy with rifampin (summary)
# Experimental: (§1) Reductions in colony forming units (CFU)/mL were determined over time (time-kill assay) after exposure to VK28 and deferiprone (DFP), the two iron chelators that performed best in MIC assays when compared to controls. To better represent the iron content found in the human body, MIC and time-kill assays were also determined in minimal media and tissue culture media. Time-Kill assays were performed as previously described in G. P. Neupane et al., “In vitro time-kill activities of ciprofloxacin alone and in combination with the iron chelator deferasirox against Vibrio vulnificus,” European Journal of Clinical Microbiology and Infectious Diseases, 407-410 (2010); and R. L. White, et al., “Comparison of Three Different In Vitro Methods of Detecting synergy: Time-Kill, Checkerboard, and E test,” Journal of Antimicrobial Agents and Chemotherapy, 1914-1918 (1996). Initial inocula, for example 1×10^6 CFU/mL or 1×10^7 CFU/mL were challenged with iron chelator with and/or without an antibiotic. Cells were allowed to grow in CAMHB at 37° C. for 24 hours. Time-kill results were analyzed by determining the change in log 10 numbers of CFU/ml at 0, 6, and 24 h, compared to counts at 0 h. Antimicrobials were considered bactericidal at the lowest concentration that reduced the size of the original inoculum by >3 log 10 CFU/ml (99.9%) over each of the time periods and were considered bacteriostatic if the inoculum's size was reduced by 0 to <3 log 10 CFU/ml.
# [2] = test system: AB5075 a MDR-clinical isolate of A. baumannii; assay: Time-kill assay in CAMHB; conditions: 0.5×MIC, 1×MIC and 2×MIC; 0, 2 and 4 hours
# Experimental: as §1
# (§2) In this example, time-kill assays were performed as described in Example 9 using Apo6619 as the iron chelator against AB5075 (MRSN959), the MDR-clinical isolate of A. baumannii. The initial inocula was 1×10^6 CFU/mL, and were challenged with 0.5×MIC, 1×MIC and 2×MIC of Apo6619. Time-kill results were analyzed by determining the change in log 10 numbers of CFU/mL at 0, 2 and 4 hours.
# as §2, with “VK28 or DFP” for “Apo6619”, “AB5075,” for “AB5075 (MRSN959),”, “either VK28 or DFP.” for “Apo6619.”, “at” for “at 0,”, “6” for “4”
# [3] = test system: clinical isolates of A. baumannii; assay: MIC for clinical isolates in RPMI (low iron) media (Table 4); set-up: key to MIC of Iron Chelators: NG = no growth in table 4; conditions: for MIC: Acinetobacter baumannii
# Experimental: […] […] Tests were performed in triplicate. MIC of iron chelators were determined for noscomial ESKAPE pathogens.
# For a number of strains, the iron chelators produced no growth of bacteria (NG).
# [4] = test system: multi-drug resistant bacterial species; assay: Checkerboard, synergy with rifampin (summary)
# Source text: Drug interactions were initially evaluated with the “checkerboard” microdilution design, which provided a matrix of all drug combinations assayed in terms of fractions of the previously determined MIC. The checkerboard microdilution design is described in R. J. Tallarida, “Drug Synergism: Its Detection and Applications,” Journal of Pharmacology and Experimental Therapeutics, 865-872 (2001); and in R. L. White, et al., (1996), supra. FIGS. 39A and 39B show the wellplates having different concentrations of iron chelator and antibiotic, as labeled along the x-axis and y-axis.
# The checkerboard assay was used to asses other combinations of iron chelators and antibiotics. The fractional inhibitory concentration index (FIC), which was calculated as follows: FIC=(MIC A in combination/MIC A)+(MIC B in combination/MIC B). Interaction was defined as synergistic if the FIC was <1.0, preferably <0.5, no interaction if the FIC was >1.0 and <4.0, and antagonistic if the FIC was >4.0.
# The assay was run against the multi-drug resistant bacterial species AB 19606, AB 17978, KP ndm, PA PAO1, PA 27853, EC 35718, and EC 43888. Blank spaces indicate concentrations not tested. […] Against the species PA PAO1 and PA 27853, all the antibiotics except for Ami.
# [5] = test system: A. baumannii AB 19606, AB 17978; assay: Checkerboard assay, chelator with antibiotic (FIC)
# Source text: Drug interactions were initially evaluated with the “checkerboard” microdilution design, which provided a matrix of all drug combinations assayed in terms of fractions of the previously determined MIC. The checkerboard microdilution design is described in R. J. Tallarida, “Drug Synergism: Its Detection and Applications,” Journal of Pharmacology and Experimental Therapeutics, 865-872 (2001); and in R. L. White, et al., (1996), supra. FIGS. 39A and 39B show the wellplates having different concentrations of iron chelator and antibiotic, as labeled along the x-axis and y-axis. […] The checkerboard assay was used to asses other combinations of iron chelators and antibiotics. The fractional inhibitory concentration index (FIC), which was calculated as follows: FIC=(MIC A in combination/MIC A)+(MIC B in combination/MIC B). […] Blank spaces indicate concentrations not tested. […] Against the species PA PAO1 and PA 27853, all the antibiotics except for Ami.
structure (smiles),measurement,setting,value
"CNC(=O)c1c(O)c(=O)cc(C)n1C1CC1 [Apo6619, 1-cyclopropyl-3-hydroxy-6-methyl-4-oxo-1,4-dihydro-pyridine-2-carboxylic acid methylamide]","synergy with rifampin, time kill method",[1],strong synergy
same,time-kill effect,[2],bactericidal (considered bactericidal at the lowest concentration that reduced the size of the original inoculum by >3 log 10 CFU/ml (99.9%))
same,MIC of Iron Chelators,[3]; AB967,NG
same,MIC of Iron Chelators,[3]; AB2828,NG
same,MIC of Iron Chelators,[3]; AB3340,NG
same,MIC of Iron Chelators,[3]; AB3560,NG
same,MIC of Iron Chelators,[3]; AB3927,NG
same,MIC,"[3]; AB3638, read-out: MIC of Iron Chelators",250 µg/mL
same,MIC,"[3]; AB3785, read-out: MIC of Iron Chelators",125 µg/mL
same,MIC,"[3]; AB3806, read-out: MIC of Iron Chelators",250 µg/mL
same,MIC,"[3]; AB3917, read-out: MIC of Iron Chelators",250 µg/mL
same,MIC,"[3]; AB4025, read-out: MIC of Iron Chelators",250 µg/mL
same,MIC,"[3]; AB4026, read-out: MIC of Iron Chelators",250 µg/mL
same,MIC,"[3]; AB4027, read-out: MIC of Iron Chelators",250 µg/mL
same,MIC,"[3]; AB4052, read-out: MIC of Iron Chelators",250 µg/mL
same,MIC,"[3]; AB4269, read-out: MIC of Iron Chelators",125 µg/mL
same,MIC,"[3]; AB4448, read-out: MIC of Iron Chelators",250 µg/mL
same,MIC,"[3]; AB4456, read-out: MIC of Iron Chelators",250 µg/mL
same,MIC,"[3]; AB4490, read-out: MIC of Iron Chelators",250 µg/mL
same,MIC,"[3]; AB4498, read-out: MIC of Iron Chelators",250 µg/mL
same,MIC,"[3]; AB4795, read-out: MIC of Iron Chelators",250 µg/mL
same,MIC,"[3]; AB4857, read-out: MIC of Iron Chelators",250 µg/mL
same,MIC,"[3]; AB4878, read-out: MIC of Iron Chelators",250 µg/mL
same,MIC,"[3]; AB4932, read-out: MIC of Iron Chelators",250 µg/mL
same,MIC,"[3]; AB4957, read-out: MIC of Iron Chelators",250 µg/mL
same,MIC,"[3]; AB4991, read-out: MIC of Iron Chelators",125 µg/mL
same,MIC,"[3]; AB5001, read-out: MIC of Iron Chelators",250 µg/mL
same,MIC,"[3]; AB5075, read-out: MIC of Iron Chelators",250 µg/mL
same,MIC,"[3]; AB5197, read-out: MIC of Iron Chelators",250 µg/mL
same,MIC,"[3]; AB5256, read-out: MIC of Iron Chelators",250 µg/mL
same,MIC,"[3]; AB5674, read-out: MIC of Iron Chelators",250 µg/mL
same,MIC,"[3]; AB5711, read-out: MIC of Iron Chelators",250 µg/mL
same,"synergy with rifampin, checkerboard",[4],moderate degrees of synergy
same,FIC,"[5]; AB 17978, in combination with Amikacin",0.75
same,FIC,"[5]; AB 17978, in combination with Cefotaxine",0.75
same,FIC,"[5]; AB 17978, in combination with Colisitin (Colistin)",0.75
same,FIC,"[5]; AB 17978, in combination with Doxycycline",1.25
same,FIC,"[5]; AB 17978, in combination with Rifampin",0.75
same,FIC,"[5]; AB 19606, in combination with Amikacin",1.25
same,FIC,"[5]; AB 19606, in combination with Cefotaxine",1.25
same,FIC,"[5]; AB 19606, in combination with Colisitin (Colistin)",1.25
same,FIC,"[5]; AB 19606, in combination with Doxycycline",2.25
same,FIC,"[5]; AB 19606, in combination with Rifampin",0.75
